Among the data in patent US20260297070A1, “CYCLIC [COMPOUND LEFT OUT] WRN INHIBITORS” (Nimbus Wadjet, Inc., priority 2023, published 2026) are IC50 values, retold here.

Bounds are passed on as bounds.

In the first assay the target is T1, human Werner helicase (WRN-BV08, Uniprot Q14191, amino acids 517-1235 with L1074F point mutation) (Homo sapiens, UniProt Q14191, L1074F).
T1 construct: Uniprot Q14191, amino acids 517-1235 with L1074F point mutation; TEV-cleavable 8×His (C, cleaved yes); made in house; host or cells: Sf9 insect cells (baculovirus)
T1 sequence (Q14191 with tags, fused parts or gaps L1074F limits assumed): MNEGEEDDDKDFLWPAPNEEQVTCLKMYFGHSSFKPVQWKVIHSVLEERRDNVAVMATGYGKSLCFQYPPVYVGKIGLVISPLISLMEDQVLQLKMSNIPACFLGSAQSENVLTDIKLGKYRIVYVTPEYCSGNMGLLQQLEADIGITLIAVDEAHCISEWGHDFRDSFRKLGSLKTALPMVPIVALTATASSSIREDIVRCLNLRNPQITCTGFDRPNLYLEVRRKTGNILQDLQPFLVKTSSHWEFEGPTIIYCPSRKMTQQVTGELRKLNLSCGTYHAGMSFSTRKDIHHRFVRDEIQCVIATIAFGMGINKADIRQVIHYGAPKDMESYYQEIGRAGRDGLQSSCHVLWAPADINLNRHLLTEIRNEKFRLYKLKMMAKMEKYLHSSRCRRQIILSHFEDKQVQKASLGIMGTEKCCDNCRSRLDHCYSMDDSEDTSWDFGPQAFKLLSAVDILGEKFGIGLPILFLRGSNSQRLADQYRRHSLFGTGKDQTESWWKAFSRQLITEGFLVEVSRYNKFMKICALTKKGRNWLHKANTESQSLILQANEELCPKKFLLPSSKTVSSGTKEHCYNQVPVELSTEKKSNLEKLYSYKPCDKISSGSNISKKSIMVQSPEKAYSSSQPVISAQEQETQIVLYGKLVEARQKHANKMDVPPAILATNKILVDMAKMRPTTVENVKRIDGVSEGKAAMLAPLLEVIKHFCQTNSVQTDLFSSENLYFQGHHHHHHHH
The assay can be described thus: WRN (BV08) ADP-Glo Assay. Format: biochemical. The following applies: 0.15 nM WRN, 5 μM ATP, 0.1 nM DNA duplex, 15 min preincubation, 60 min at 25° C., pH 7.5, 1% DMSO; read-out: ADP-Glo_hWRN_IC50. A digest of the protocol: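 ADP-Glo luminescence read-out of ATP hydrolysis. Conditions: 0.15 nM WRN, 5 μM ATP, 0.1 nM DNA duplex, 1% DMSO, 60 min at 25 °C after 15 min compound preincubation. Max/min controls were DMSO and 20 μM NSC-617145; IC50 from four-parameter fit.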
As for `O=C(Cn1cc(-c2ccccc2)nn1)N(Cc1ccncc1)C1C=CS(=O)(=O)C1` (stereo not shown) [I-403, N-(1,1-dioxo-2,3-dihydro-1lambda6-thiophen-3-yl)-2-(4-phenyl-1H-1,2,3-triazol-1-yl)-N-[(pyridin-4-yl)methyl]acetamide], the IC50 was above 50 µM.

On to `O=C(Cc1cnn(-c2ccccc2)n1)N(Cc1ccncc1)C1C=CS(=O)(=O)C1` (stereo not shown) [I-406, N-(1,1-dioxo-2,3-dihydro-1lambda6-thiophen-3-yl)-2-(2-phenyl-2H-1,2,3-triazol-4-yl)-N-[(pyridin-4-yl)methyl]acetamide], for which the IC50 is above 50 µM.

Turning to `O=C(Cn1cc(C2CCOC2)cn1)N(Cc1ccncc1)C1C=CS(=O)(=O)C1` (stereo not shown) [I-407, N-(1,1-dioxo-2,3-dihydro-1lambda6-thiophen-3-yl)-2-[4-(oxolan-3-yl)-1H-pyrazol-1-yl]-N-[(pyridin-4-yl)methyl]acetamide], the IC50 was above 50 µM.

Take `O=C(Cn1cc(Br)cn1)N(Cc1ccncc1)C1C=CS(=O)(=O)C1` (stereo not shown) [I-408, 2-(4-bromo-1H-pyrazol-1-yl)-N-(1,1-dioxo-2,3-dihydro-1lambda6-thiophen-3-yl)-N-[(pyridin-4-yl)methyl]acetamide]: the IC50 was above 50 µM.

On to `O=C(Cc1cnn(-c2ccccc2)c1)N(Cc1ccncc1)C1C=CS(=O)(=O)C1` (stereo not shown) [I-409, N-(1,1-dioxo-2,3-dihydro-1lambda6-thiophen-3-yl)-2-(1-phenyl-1H-pyrazol-4-yl)-N-[(pyridin-4-yl)methyl]acetamide], for which the IC50 is above 50 µM.

Regarding `O=C(Cc1coc(-c2ccc(F)c(F)c2)n1)N(Cc1ccncc1)C1C=CS(=O)(=O)C1` (stereo not shown) [I-410, 2-[2-(3,4-difluorophenyl)-1,3-oxazol-4-yl]-N-(1,1-dioxo-2,3-dihydro-1lambda6-thiophen-3-yl)-N-[(pyridin-4-yl)methyl]acetamide], the IC50 was above 50 µM.

For the molecule `COc1ccc2[nH]c(CC(=O)N(Cc3ccncc3)C3C=CS(=O)(=O)C3)cc2c1` (stereo not shown) [I-412, N-(1,1-dioxo-2,3-dihydro-1lambda6-thiophen-3-yl)-2-(5-methoxy-1H-indol-2-yl)-N-[(pyridin-4-yl)methyl]acetamide], the IC50 was above 50 µM.

Take `O=C(CCc1[nH]nc2ccccc12)N(Cc1ccncc1)C1C=CS(=O)(=O)C1` (stereo not shown) [I-413, N-(1,1-dioxo-2,3-dihydro-1lambda6-thiophen-3-yl)-3-(2H-indazol-3-yl)-N-[(pyridin-4-yl)methyl]propanamide]: the IC50 was above 50 µM.

As for `O=C(Cc1ccc2c[nH]nc2c1)N(Cc1ccncc1)C1C=CS(=O)(=O)C1` (stereo not shown) [I-414, N-(1,1-dioxo-2,3-dihydro-1lambda6-thiophen-3-yl)-2-(2H-indazol-6-yl)-N-[(pyridin-4-yl)methyl]acetamide], the IC50 is above 50 µM.

Regarding `O=C(CC1CCC(c2ccccc2)CC1)N(Cc1ccncc1)C1C=CS(=O)(=O)C1` (stereo not shown) [I-416, N-(1,1-dioxo-2,3-dihydro-1lambda6-thiophen-3-yl)-2-(4-phenylcyclohexyl)-N-[(pyridin-4-yl)methyl]acetamide], the IC50 is above 50 µM.

Turning to `O=C(Cc1c[nH]c2cc(Cl)ccc12)N(Cc1ccncc1)C1C=CS(=O)(=O)C1` (stereo not shown) [I-417, 2-(6-chloro-1H-indol-3-yl)-N-(1,1-dioxo-2,3-dihydro-1lambda6-thiophen-3-yl)-N-[(pyridin-4-yl)methyl]acetamide], the IC50 was above 50 µM.

As to `Cc1c(CC(=O)N(Cc2ccncc2)C2C=CS(=O)(=O)C2)c(=O)[nH]c2ccccc12` (stereo not shown) [I-418, N-(1,1-dioxo-2,3-dihydro-1lambda6-thiophen-3-yl)-2-(4-methyl-2-oxo-1,2-dihydroquinolin-3-yl)-N-[(pyridin-4-yl)methyl]acetamide], the IC50 is above 50 µM.

Regarding `O=C(Cc1ccc(-n2cccn2)cc1)N(Cc1ccncc1)C1C=CS(=O)(=O)C1` (stereo not shown) [I-419, N-(1,1-dioxo-2,3-dihydro-1lambda6-thiophen-3-yl)-2-[4-(1H-pyrazol-1-yl)phenyl]-N-[(pyridin-4-yl)methyl]acetamide], the IC50 was above 50 µM.

As to `O=C(Cn1cnc(-c2ccccc2)n1)N(Cc1ccncc1)C1C=CS(=O)(=O)C1` (stereo not shown) [I-420, N-(1,1-dioxo-2,3-dihydro-1lambda6-thiophen-3-yl)-2-(3-phenyl-1H-1,2,4-triazol-1-yl)-N-[(pyridin-4-yl)methyl]acetamide], the IC50 is above 50 µM.

`O=C(Cc1ccc(-n2cccc2)cc1)N(c1ccccc1)C1C=CS(=O)(=O)C1` (stereo not shown) [I-421, N-(1,1-dioxo-2,3-dihydro-1lambda6-thiophen-3-yl)-N-phenyl-2-[4-(1H-pyrrol-1-yl)phenyl]acetamide]: the IC50 is above 50 µM.

Turning to `O=C(C1Cc2ccc(-n3cccc3)cc2C1)N(Cc1ccncc1)C1C=CS(=O)(=O)C1` (stereo not shown) [I-422, N-(1,1-dioxo-2,3-dihydro-1lambda6-thiophen-3-yl)-N-[(pyridin-4-yl)methyl]-5-(1H-pyrrol-1-yl)-2,3-dihydro-1H-indene-2-carboxamide], the IC50 was above 50 µM.

`O=C(c1c[nH]c2cc(-c3ccc(F)cc3)ccc12)N(Cc1ccncc1)C1C=CS(=O)(=O)C1` (stereo not shown) [I-423, N-(1,1-dioxo-2,3-dihydro-1lambda6-thiophen-3-yl)-6-(4-fluorophenyl)-N-[(pyridin-4-yl)methyl]-1H-indole-3-carboxamide]: the IC50 was above 50 µM.

For `CC(C)(O)c1cc(CN(C(=O)c2c[nH]c3cc(-c4ccc(F)cc4)ccc23)C2C=CS(=O)(=O)C2)ccn1` (stereo not shown) [I-424, N-(1,1-dioxo-2,3-dihydro-1lambda6-thiophen-3-yl)-6-(4-fluorophenyl)-N-{[2-(2-hydroxypropan-2-yl)pyridin-4-yl]methyl}-1H-indole-3-carboxamide], the IC50 is above 50 µM.

On to `COc1cc(CN(C(=O)Cc2ccc(-n3cccc3C)cc2F)[C@H]2C=CS(=O)(=O)C2)ccn1` [I-425, N-[(3S)-1,1-dioxo-2,3-dihydro-1lambda6-thiophen-3-yl]-2-[2-fluoro-4-(2-methyl-1H-pyrrol-1-yl)phenyl]-N-[(2-methoxypyridin-4-yl)methyl]acetamide], for which the IC50 was above 50 µM.

As to `O=C(Cn1cc(Cl)cn1)N(Cc1ccncc1)C1C=CS(=O)(=O)C1` (stereo not shown) [I-427, 2-(4-chloro-1H-pyrazol-1-yl)-N-(1,1-dioxo-2,3-dihydro-1lambda6-thiophen-3-yl)-N-[(pyridin-4-yl)methyl]acetamide], the IC50 is above 50 µM.

In the case of `O=C(Cc1ccc2oc3ccccc3c2c1)N(Cc1ccncc1)C1C=CS(=O)(=O)C1` (stereo not shown) [I-428, N-(1,1-dioxo-2,3-dihydro-1lambda6-thiophen-3-yl)-2-{8-oxatricyclo[7.4.0.0^{2,7}]trideca-1(13),2,4,6,9,11-hexaen-4-yl}-N-[(pyridin-4-yl)methyl]acetamide], the IC50 is above 50 µM.

For `O=C(Cn1cc(C2CC2)cn1)N(Cc1ccncc1)C1C=CS(=O)(=O)C1` (stereo not shown) [I-429, 2-(4-cyclopropyl-1H-pyrazol-1-yl)-N-(1,1-dioxo-2,3-dihydro-1lambda6-thiophen-3-yl)-N-[(pyridin-4-yl)methyl]acetamide], the IC50 is above 50 µM.

As to `O=C(Cc1cccc2ccccc12)N(Cc1ccncc1)C1C=CS(=O)(=O)C1` (stereo not shown) [I-431, N-(1,1-dioxo-2,3-dihydro-1lambda6-thiophen-3-yl)-2-(naphthalen-1-yl)-N-[(pyridin-4-yl)methyl]acetamide], the IC50 was above 50 µM.

With `N#CCOc1ccc(CC(=O)N(Cc2ccncc2)C2C=CS(=O)(=O)C2)cc1` (stereo not shown) [I-432, 2-[4-(cyanomethoxy)phenyl]-N-(1,1-dioxo-2,3-dihydro-1lambda6-thiophen-3-yl)-N-[(pyridin-4-yl)methyl]acetamide], the IC50 is above 50 µM.

Turning to `O=C(Cn1cc2ccccc2n1)N(Cc1ccncc1)C1C=CS(=O)(=O)C1` (stereo not shown) [I-433, N-(1,1-dioxo-2,3-dihydro-1lambda6-thiophen-3-yl)-2-(2H-indazol-2-yl)-N-[(pyridin-4-yl)methyl]acetamide], the IC50 was above 50 µM.

In the case of `Cc1c(CC(=O)N(Cc2ccncc2)C2C=CS(=O)(=O)C2)nnn1-c1ccccc1` (stereo not shown) [I-434, N-(1,1-dioxo-2,3-dihydro-1lambda6-thiophen-3-yl)-2-(5-methyl-1-phenyl-1H-1,2,3-triazol-4-yl)-N-[(pyridin-4-yl)methyl]acetamide], the IC50 was above 50 µM.

Consider `O=C(C(C1CC1)n1cc(-c2ccccc2)cn1)N(Cc1ccncc1)C1C=CS(=O)(=O)C1` (stereo not shown) [I-435, 2-cyclopropyl-N-(1,1-dioxo-2,3-dihydro-1lambda6-thiophen-3-yl)-2-(4-phenyl-1H-pyrazol-1-yl)-N-[(pyridin-4-yl)methyl]acetamide], for which the IC50 is above 50 µM.

For the molecule `Cc1cnn(CC(=O)N(Cc2ccncc2)C2C=CS(=O)(=O)C2)c1` (stereo not shown) [I-436, N-(1,1-dioxo-2,3-dihydro-1lambda6-thiophen-3-yl)-2-(4-methyl-1H-pyrazol-1-yl)-N-[(pyridin-4-yl)methyl]acetamide], the IC50 is above 50 µM.

As to `O=C(Cc1cccc(C2CC2)c1)N(Cc1ccncc1)C1C=CS(=O)(=O)C1` (stereo not shown) [I-437, 2-(3-cyclopropylphenyl)-N-(1,1-dioxo-2,3-dihydro-1lambda6-thiophen-3-yl)-N-[(pyridin-4-yl)methyl]acetamide], the IC50 was above 50 µM.

For `O=C(Cc1csc(C2CC2)n1)N(Cc1ccncc1)C1C=CS(=O)(=O)C1` (stereo not shown) [I-438, 2-(2-cyclopropyl-1,3-thiazol-4-yl)-N-(1,1-dioxo-2,3-dihydro-1lambda6-thiophen-3-yl)-N-[(pyridin-4-yl)methyl]acetamide], the IC50 was above 50 µM.

Still in this assay, the particulars now being: ADP-Glo_hWRN_IC50, 0.15 nM WRN, 5 μM ATP, 0.1 nM DNA duplex, 15 min preincubation, 60 min at 25° C., pH 7.5, 1% DMSO.
The molecule `O=C(CN1CC=C(c2ccccc2)CC1)N(c1ccccc1)C1C=CS(=O)(=O)C1` (stereo not shown) [I-430, N-(1,1-dioxo-2,3-dihydro-1lambda6-thiophen-3-yl)-N-phenyl-2-(4-phenyl-1,2,3,6-tetrahydropyridin-1-yl)acetamide] displayed an IC50 above 50 µM.
